# In patent US20260297098A1, “HETEROCYCLIC COMPOUNDS AS PARP1 INHIBITORS” (Synnovation Therapeutics, Inc., priority 2023, published 2026):
# Molecular target: T1, hydrogen peroxide-induced PARylation in HeLa cells (wide-type with PARP1 gene) (Homo sapiens, UniProt P09874)
# T1 construct: H2O2-induced PARylation, In-Cell Western with anti-PAR antibody
# Assay: In-Cell Western measurement of PARylation in PARP1 WT (HeLa) cells
# Format: cell-based
# Conditions: 60 min compound pre-treatment, 10 mM hydrogen peroxide for 15 min, read-out: HeLa_WT_IC50
# Source text: Example A. In-Cell Western Measurement of PARylation in PARP1 WT and Knockout Cells
# The purpose of this cell-based assay is to measure the potency and selectivity of synthesized PARP inhibitors in suppressing hydrogen peroxide-induced PARylation in cells with and without PARP1 expression. Several cell lines were used in this assay. HeLa cells (wide-type with PARP1 gene) were purchased from ATCC. The HAP1 cell line without the PARP1 gene (#HZGHC003943c006) was purchased from Horizon Discovery. Cells were cultured using complete medium containing 10% fetal bovine serum. One day before the assay, cells were seeded in 96-well plates at the density of 20,000 cells per well in 80 uL complete medium. Compounds were dissolved using DMSO and diluted to the working concentrations using complete medium. Cells were pre-treated with compounds for 60 min and then stimulated with 10 mM hydrogen peroxide for 15 min. After stimulation, cells were immediately fixed using ice-cold methanol for 20 min. After fixation, cells were washed using 1×PBST buffer for 3 times, 5 min each time, to eliminate residual methanol. Cells were blocked for 1 h at room temperature in blocking buffer (10% goat serum, 1% BSA, 0.1% Triton X-100 in PBST). Primary antibody was diluted in blocking buffer at 50 uL per well. Cells were incubated with the primary antibody (Adipogen, AG-20T-0001-M001, 1:300) at 4° C. for 18 h. The wells were then washed using 1×PBST for 3 times, 5 min each time. IRDye® 680RD Goat anti-Mouse IgG (H+L) secondary antibody was diluted at 1/1000 using the diluent buffer and added at 50 uL per well. Secondary antibody incubation was for 1 h at room temperature. Cells were then washed using 1×PBST for 3 times, 5 min each time. The signal was detected and analyzed using LI-COR Odyssey DLx Imaging system. Data were collected and further processed using GraphPad Prism for IC50 estimation.
# T1 sequence (P09874 whole entry): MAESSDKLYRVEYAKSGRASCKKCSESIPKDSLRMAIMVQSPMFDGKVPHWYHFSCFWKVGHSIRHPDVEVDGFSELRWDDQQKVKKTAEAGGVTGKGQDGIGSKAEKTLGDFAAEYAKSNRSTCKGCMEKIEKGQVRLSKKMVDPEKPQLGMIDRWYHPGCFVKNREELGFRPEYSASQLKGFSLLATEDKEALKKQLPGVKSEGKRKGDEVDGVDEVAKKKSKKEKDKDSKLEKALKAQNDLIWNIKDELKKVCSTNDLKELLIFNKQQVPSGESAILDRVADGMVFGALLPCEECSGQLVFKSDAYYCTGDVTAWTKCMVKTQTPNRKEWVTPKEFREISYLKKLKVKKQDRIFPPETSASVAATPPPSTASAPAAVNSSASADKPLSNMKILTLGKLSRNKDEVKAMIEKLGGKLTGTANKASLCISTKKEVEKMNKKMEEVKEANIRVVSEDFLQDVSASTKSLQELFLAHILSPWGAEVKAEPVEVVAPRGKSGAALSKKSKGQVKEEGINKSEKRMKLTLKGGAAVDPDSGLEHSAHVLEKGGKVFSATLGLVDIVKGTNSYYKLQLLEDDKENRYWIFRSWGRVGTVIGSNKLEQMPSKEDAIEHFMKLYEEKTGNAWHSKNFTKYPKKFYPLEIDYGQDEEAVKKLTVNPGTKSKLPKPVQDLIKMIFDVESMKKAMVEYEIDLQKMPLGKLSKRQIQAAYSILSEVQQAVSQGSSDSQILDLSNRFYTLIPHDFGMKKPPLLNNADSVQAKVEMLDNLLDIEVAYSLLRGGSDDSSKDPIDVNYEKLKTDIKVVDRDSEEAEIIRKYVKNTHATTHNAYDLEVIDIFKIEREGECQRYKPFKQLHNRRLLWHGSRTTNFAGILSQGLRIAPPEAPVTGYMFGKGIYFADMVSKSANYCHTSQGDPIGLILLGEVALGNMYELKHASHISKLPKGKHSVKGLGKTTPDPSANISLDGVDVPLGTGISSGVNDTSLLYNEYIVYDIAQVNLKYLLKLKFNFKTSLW
row,IC50 [nM],Structure (SMILES)
1,≤ 10,"CCN1C(=O)Nc2c(F)c(CN3C[C@H](Oc4ccc(C(=O)NC5CC5)nc4)[C@H]3C)cc3ncnc1c23 [Example 8, N-cyclopropyl-5-(((2R,3S)-1-((3-ethyl-9-fluoro-2-oxo-2,3-dihydro-1H-pyrimido[4,5,6-de]quinazolin-8-yl)methyl)-2-methylazetidin-3-yl)oxy)picolinamide]"
2,≤ 10,"CCN1C(=O)Nc2cc(CN3CC(Oc4ccc(C(=O)NC)nc4C)C3)cc3ncnc1c23 [Example 9, 5-((1-((3-Ethyl-2-oxo-2,3-dihydro-1H-pyrimido[4,5,6-de]quinazolin-8-yl)methyl)azetidin-3-yl)oxy)-N,6-dimethylpicolinamide]"
3,≤ 10,"CCN1C(=O)Nc2cc(CN3C[C@H](Oc4ccc(C(=O)NC)nc4C)[C@H]3C)cc3ncnc1c23 [Example 10, 5-(((2R,3S)-1-((3-ethyl-2-oxo-2,3-dihydro-1H-pyrimido[4,5,6-de]quinazolin-8-yl)methyl)-2-methylazetidin-3-yl)oxy)-N,6-dimethylpicolinamide]"

# The next lines start with the compound.
row,Structure (SMILES),IC50 [nM]
1,"CCN1C(=O)Nc2c(F)c(CN3CC(Oc4ccc(C(=O)NC)nc4)C3)cc3ncnc1c23 [Example 1, 5-((1-((3-Ethyl-9-fluoro-2-oxo-2,3-dihydro-1H-pyrimido[4,5,6-de]quinazolin-8-yl)methyl)azetidin-3-yl)oxy)-N-methylpicolinamide]",≤ 10
2,"CCN1C(=O)Nc2c(F)c(CN3C[C@H](Oc4ccc(C(=O)NC)nc4)[C@H]3C)cc3ncnc1c23 [Example 2, 5-(((2R,3S)-1-((3-ethyl-9-fluoro-2-oxo-2,3-dihydro-1H-pyrimido[4,5,6-de]quinazolin-8-yl)methyl)-2-methylazetidin-3-yl)oxy)-N-methylpicolinamide]",≤ 10
3,"CCN1C(=O)Nc2cc(CN3CC(Oc4ccc(C(=O)NC)nc4)C3)cc3ncnc1c23 [Example 3, 5-((1-((3-Ethyl-2-oxo-2,3-dihydro-1H-pyrimido[4,5,6-de]quinazolin-8-yl)methyl)azetidin-3-yl)oxy)-N-methylpicolinamide]",≤ 10
4,"CCN1C(=O)Nc2cc(CN3C[C@H](Oc4ccc(C(=O)NC)nc4)[C@H]3C)cc3ncnc1c23 [Example 4, 5-(((2R,3S)-1-((3-ethyl-2-oxo-2,3-dihydro-1H-pyrimido[4,5,6-de]quinazolin-8-yl)methyl)-2-methylazetidin-3-yl)oxy)-N-methylpicolinamide]",≤ 10
5,"CCN1C(=O)Nc2cc(CN3CC(Oc4ccc(C(=O)NC5CC5)nc4)C3)cc3ncnc1c23 [Example 5, N-cyclopropyl-5-((1-((3-ethyl-2-oxo-2,3-dihydro-1H-pyrimido[4,5,6-de]quinazolin-8-yl)methyl)azetidin-3-yl)oxy)picolinamide]",≤ 10
6,"CCN1C(=O)Nc2cc(CN3C[C@H](Oc4ccc(C(=O)NC5CC5)nc4)[C@H]3C)cc3ncnc1c23 [Example 6, N-cyclopropyl-5-(((2R,3S)-1-((3-ethyl-2-oxo-2,3-dihydro-1H-pyrimido[4,5,6-de]quinazolin-8-yl)methyl)-2-methylazetidin-3-yl)oxy)picolinamide]",≤ 10
7,"CCN1C(=O)Nc2c(F)c(CN3CC(Oc4ccc(C(=O)NC5CC5)nc4)C3)cc3ncnc1c23 [Example 7, N-cyclopropyl-5-((1-((3-ethyl-9-fluoro-2-oxo-2,3-dihydro-1H-pyrimido[4,5,6-de]quinazolin-8-yl)methyl)azetidin-3-yl)oxy)picolinamide]",≤ 10
